Test results reported in patent publication US20220009894A1, “1,2,3,4-TETRAHYDROQUINOXALINE DERIVATIVE, PREPARATION METHOD THEREFOR AND APPLICATION THEREOF” (Abbisko Therapeutics Co., Ltd., priority 2019, published 2022).
pEC50: −log10 of the molar value.

Assays:
RORγt = target: T1, RORγt (Homo sapiens, UniProt P51449); experiment: RORγt cellular reporter gene detection assay; assay type: cell-based; conditions: 24 hrs; for pEC50: HEK 293 cells co-transfected with pFN26A-RORγt-LBD and pG14.35, in presence of antagonist Ursolic acid, top concentration 50 μM; for Cellular Reporter Assay Amax: upper activation limit, HEK 293 cells, in presence of antagonist Ursolic acid;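 on Cellular Reporter Assay Amax: Ursolic Acid added as 5 µL of 20 µM medium per well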
T1 construct: The plasmid of pFN26A-RORγt-LBD and pG14.35 (Promega, Cat. No. E1370) were co-transfected into HEK 293 cells; expressed in transfected cells; host or cells: HEK 293 cells (Cat. No. GNHu18)
T1 sequence (P51449 269-508 limits assumed): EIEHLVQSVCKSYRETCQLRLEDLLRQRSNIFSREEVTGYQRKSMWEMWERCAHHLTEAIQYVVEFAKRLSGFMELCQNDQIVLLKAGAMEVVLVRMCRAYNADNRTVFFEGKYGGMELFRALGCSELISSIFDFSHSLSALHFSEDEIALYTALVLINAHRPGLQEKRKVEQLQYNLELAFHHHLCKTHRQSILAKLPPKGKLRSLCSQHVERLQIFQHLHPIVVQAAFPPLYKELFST
Procedure, shortened: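 HEK293 cells co-transfected with RORγt-LBD and luciferase reporter plasmids, treated with Ursolic acid antagonist plus compound in 4-fold dilutions from 50 μM for 24 h at 37° C. Firefly and Renilla luminescence read; EC50 and Amax from four-parameter fit.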

RORγt-LBD = target: T2, RORγt-LBD (Homo sapiens, UniProt P51449); experiment: Time-resolved fluorescence resonance energy-transfer assay (TR-FRET), co-activator peptide recruitment; assay type: biochemical; set-up: TR-FRET Biochemical Amax: unit not given here; conditions: for pEC50: His-RORγt-LBD 30 nM, SRC peptide 500 nM, agonistic activity, averages of one or more measurements, read-out: TR-FRET Biochemical EC50/; for TR-FRET Biochemical Amax: upper activation limit, His-RORγt-LBD, SRC peptide
T2 sequence (P51449 269-508 limits assumed): T1 sequence (P51449 269-508 limits assumed)
Procedure, shortened: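 Eu-anti-His-labelled His-RORγt-LBD (30 nM final) recruits biotin-SRC co-activator peptide (500 nM final), detected via APC-streptavidin (5 nM) and Eu-anti-His (0.25 nM). Buffer was Tris/KCl/EDTA at pH 7.0 with 0.01% Triton X-100 and 1 mM DTT. Compounds were tested at 7 points in 5-fold dilutions. Plates were incubated overnight at 4 °C then 1 h at RT, and agonism was read as the 665/615 nm ratio.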

C/C(=C\c1ccc2c(c1)N(S(=O)(=O)c1cccc(C(F)(F)F)c1)C[C@@H]1CN(C[C@@H](O)CO)CCN21)c1c(F)cccc1Cl [Example 37, (R)-3-((S)-8-((E)-2-(2-chloro-6-fluorophenyl)prop-1-en-1-yl)-6-((3-(trifluoromethyl)phe-nyl)sulfonyl)-1,2,4,4a,5,6-hexa-hydro-3H-pyrazino[1,2-a]qui-noxalin-3-yl)propane-1,2-diol]
pEC50 (RORγt): 6.44
Cellular Reporter Assay Amax (RORγt): 3.7
pEC50 (RORγt-LBD): 7.43
TR-FRET Biochemical Amax (RORγt-LBD): 1.21

C/C(=C\c1ccc2c(c1)N(S(=O)(=O)c1cccc(C(F)(F)F)c1)C[C@@H]1CN(C[C@H](O)CO)CCN21)c1c(F)cccc1Cl [Example 38, (S)-3-((S)-8-((E)-2-(2-chloro-6-fluorophenyl)prop-1-en-1-yl)-6-((3-(trifluoromethyl)phe-nyl)sulfonyl)-1,2,4,4a,5,6-hexa-hydro-3H-pyrazino[1,2-a]qui-noxalin-3-yl)propane-1,2-diol]
pEC50 (RORγt): 6.54
Cellular Reporter Assay Amax (RORγt): 3.7
pEC50 (RORγt-LBD): 7.39
TR-FRET Biochemical Amax (RORγt-LBD): 1.23

O=S(=O)(c1cccc(C(F)(F)F)c1)N1C[C@@H]2CN(C[C@@H](O)CO)CCN2c2ccc(-c3cc(F)cc(OC(F)F)c3)cc21 [Example 39, (R)-3-((S)-8-(3-(difluorome-thoxy)-5-fluorophenyl)-6-((3-(trifluoromethyl)phenyl)sulfonyl)-1,2,4,4a,5,6-hexahydro-3H-pyrazino[1,2-a]quinoxalin-3-yl) propane-1,2-diol]
pEC50 (RORγt): 5.90
Cellular Reporter Assay Amax (RORγt): 2.2
pEC50 (RORγt-LBD): 7.47
TR-FRET Biochemical Amax (RORγt-LBD): 0.58

O=S(=O)(c1cccc(C(F)(F)F)c1)N1C[C@@H]2CN(C[C@H](O)CO)CCN2c2ccc(-c3cc(F)cc(OC(F)F)c3)cc21 [Example 40, (S)-3-((S)-8-(3-(difluoromethoxy)-5-fluorophenyl)-6-((3-(tri-fluoromethyl)phenyl)sulfonyl)-1,2,4,4a,5,6-hexahydro-3H-pyrazino[1,2-a]quinoxalin-3-yl) propane-1,2-diol]
pEC50 (RORγt): 6.14
Cellular Reporter Assay Amax (RORγt): 2.5
pEC50 (RORγt-LBD): 7.89
TR-FRET Biochemical Amax (RORγt-LBD): 0.76

CC1(C)C=C(c2ccc3c(c2)N(S(=O)(=O)c2cccc(C(F)(F)F)c2)C[C@@H]2CN(C[C@H](O)CO)CCN32)CC(C)(C)O1 [Example 42, (S)-3-((S)-8-(2,2,6,6-tetrameth-yl-3,6-dihydro-2H-pyran-4-yl)-6-((3-(trifluoromethyl)phenyl)sulfonyl)-1,2,4,4a,5,6-hexa-hydro-3H-pyrazino[1,2-a]qui-noxalin-3-yl)propane-1,2-diol]
pEC50 (RORγt): 6.91
Cellular Reporter Assay Amax (RORγt): 1.4
pEC50 (RORγt-LBD): 9.08
TR-FRET Biochemical Amax (RORγt-LBD): 1.28

CCOC(=O)CN1CCN2c3ccc(/C=C(\C)c4c(F)cccc4Cl)cc3N(S(=O)(=O)c3cccc(C(F)(F)F)c3)C[C@@H]2C1 [Example 43, ethyl (S,E)-2-(8-(2-(2-chloro-6-fluorophenyl)prop-1-en-1-yl)-6-((3-(trifluoromethyl)phenyl)sulfonyl)-1,2,4,4a,5,6-hexahydro-3H-pyrazino[1,2-a]quinoxalin-3-yl)acetate]
pEC50 (RORγt): 6.79
Cellular Reporter Assay Amax (RORγt): 3.0
pEC50 (RORγt-LBD): 7.76
TR-FRET Biochemical Amax (RORγt-LBD): 0.87

COC(=O)CN1CCN2c3ccc(/C=C(\C)c4c(F)cccc4Cl)cc3N(S(=O)(=O)c3cccc(C(F)(F)F)c3)C[C@@H]2C1 [Example 44, methyl (S,E)-2-(8-(2-(2-chloro-6-fluorophenyl)prop-1-en-1-yl)-6-((3-(trifluoromethyl)phenyl)sulfonyl)-1,2,4,4a,5,6-hexahydro-3H-pyrazino[1,2-a]quinoxalin-3-yl)acetate]
pEC50 (RORγt): 6.59
Cellular Reporter Assay Amax (RORγt): 4.2
pEC50 (RORγt-LBD): 7.63
TR-FRET Biochemical Amax (RORγt-LBD): 1.04

COC(=O)CN1CCN2c3ccc(/C=C/c4c(Cl)cccc4C(F)(F)F)cc3N(S(=O)(=O)c3cccc(C(F)(F)F)c3)C[C@@H]2C1 [Example 45, methyl (S,E)-2-(8-(2-chloro-6-(trifluoromethyl)styryl)-6-((3-(trifluoromethyl)phenyl)sulfonyl)-1,2,4,4a,5,6-hexahydro-3H-pyrazino[1,2-a]quinoxalin-3-yl) acetate]
pEC50 (RORγt): 6.43
pEC50 (RORγt-LBD): 7.98

CCOC(=O)CN1CCN2c3ccc(/C=C/c4c(Cl)cccc4C(F)(F)F)cc3N(S(=O)(=O)c3cccc(C(F)(F)F)c3)C[C@@H]2C1 [Example 46, ethyl (S,E)-2-(8-(2-chloro-6-(trifluoromethyl)styryl)-6-((3-(trifluoromethyl)phenyl)sulfonyl)-1,2,4,4a,5,6-hexahydro-3H-pyrazino [1,2-a]quinoxalin-3-yl)acetate]
pEC50 (RORγt): 6.03
Cellular Reporter Assay Amax (RORγt): 4.0
pEC50 (RORγt-LBD): 8.28
TR-FRET Biochemical Amax (RORγt-LBD): 0.72

CC(C)OC(=O)CN1CCN2c3ccc(/C=C/c4c(Cl)cccc4C(F)(F)F)cc3N(S(=O)(=O)c3cccc(C(F)(F)F)c3)C[C@@H]2C1 [Example 47, isopropyl (S,E)-2-(8-(2-chloro-6-(trifluoromethyl)styryl)-6-((3-(trifluoromethyl)phenyl)sulfonyl)-1,2,4,4a,5,6-hexahydro-3H-pyrazino[1,2-a]quinoxalin-3-yl) acetate]
pEC50 (RORγt): 6.12
Cellular Reporter Assay Amax (RORγt): 2.1
pEC50 (RORγt-LBD): 8.45
TR-FRET Biochemical Amax (RORγt-LBD): 0.77

C/C(=C\c1ccc2c(c1)N(S(=O)(=O)c1cccc(C(F)(F)F)c1)C[C@@H]1CN(CC(=O)OC(C)C)CCN21)c1c(F)cccc1Cl [Example 48, isopropyl (S,E)-2-(8-(2-(2-chloro-6-fluorophenyl)prop-1-en-1-yl)-6-((3-(trifluoromethyl)phe-nyl)sulfonyl)-1,2,4,4a,5,6-hexa-hydro-3H-pyrazino[1,2-a]quinox-alin-3-yl)acetate]
pEC50 (RORγt): 6.55
Cellular Reporter Assay Amax (RORγt): 1.9
pEC50 (RORγt-LBD): 7.97
TR-FRET Biochemical Amax (RORγt-LBD): 0.67

C/C(=C\c1ccc2c(c1)N(S(=O)(=O)c1cccc(C(F)(F)F)c1)C[C@@H]1CN(CC(=O)OCOC(=O)OC(C)C)CCN21)c1c(F)cccc1Cl [Example 49, ((isopropoxycarbonyl)oxy)methyl (S,E)-2-(8-(2-(2-chloro-6-fluorophenyl)prop-1-en-1-yl)-6-((3-(trifluoromethyl)phenyl)sulfonyl)-1,2,4,4a,5,6-hexahydro-3H-pyrazino[1,2-a]quinoxalin-3-yl)acetate]
pEC50 (RORγt): 6.62
Cellular Reporter Assay Amax (RORγt): 5.2
pEC50 (RORγt-LBD): 8.26
TR-FRET Biochemical Amax (RORγt-LBD): 0.61

CC(C)OC(=O)OCOC(=O)CN1CCN2c3ccc(/C=C/c4c(Cl)cccc4C(F)(F)F)cc3N(S(=O)(=O)c3cccc(C(F)(F)F)c3)C[C@@H]2C1 [Example 50, ((isopropoxycarbonyl)oxy)methyl (S,E)-2-(8-(2-chloro-6-(trifluoromethyl)styryl)-6-((3-(trifluoromethyl)phenyl)sulfonyl)-1,2,4,4a,5,6-hexahydro-3H-pyrazino[1,2-a]quinoxalin-3-yl)acetate]
pEC50 (RORγt): 6.17
Cellular Reporter Assay Amax (RORγt): 6.3
pEC50 (RORγt-LBD): 8.09
TR-FRET Biochemical Amax (RORγt-LBD): 0.64

CC(C)(C)OC(=O)C(C)(C)N1CCN2c3ccc(-c4cc(F)cc(OC(F)F)c4)cc3N(S(=O)(=O)c3cccc(C(F)(F)F)c3)C[C@@H]2C1 [Example 51, tert-butyl (S)-2-(8-(3-(difluoromethoxy)-5-fluorophenyl)-6-((3-(trifluoromethyl)phenyl)sulfonyl)-1,2,4,4a,5,6-hexahydro-3H-pyrazino[1,2-a]quinoxalin-3-yl)-2-methylpropanoate]
pEC50 (RORγt): 5.40
Cellular Reporter Assay Amax (RORγt): 1.5
pEC50 (RORγt-LBD): 7.31
TR-FRET Biochemical Amax (RORγt-LBD): 0.77

CC(C)(C)OC(=O)C(C)(C)N1CCN2c3ccc(/C=C/c4c(Cl)cccc4C(F)(F)F)cc3N(S(=O)(=O)c3cccc(C(F)(F)F)c3)C[C@@H]2C1 [Example 52, tert-butyl (S,E)-2-(8-(2-chloro-6-(trifluoromethyl)styryl)-6-((3-(trifluoromethyl)phenyl)sul-fonyl)-1,2,4,4a,5,6-hexahydro-3H-pyrazino[1,2-a]quinoxalin-3-yl)-2-methylpropanoate]
pEC50 (RORγt): ≤ 4.30
pEC50 (RORγt-LBD): 6.74
TR-FRET Biochemical Amax (RORγt-LBD): 0.50

C/C(=C\c1ccc2c(c1)N(S(=O)(=O)c1cccc(C(F)(F)F)c1)C[C@@H]1CN(C(C)(C)C(=O)OC(C)(C)C)CCN21)c1c(F)cccc1Cl [Example 53, tert-butyl (S,E)-2-(8-(2-(2-chloro-6-fluorophenyl)prop-1-en-1-yl)-6-((3-(trifluoromethyl)phe-nyl)sulfonyl)-1,2,4,4a,5,6-hexahydro-3H-pyrazino[1,2-a]qui-noxalin-3-yl)-2-methylpropanoate]
pEC50 (RORγt): ≤ 4.30
pEC50 (RORγt-LBD): 6.59
TR-FRET Biochemical Amax (RORγt-LBD): 0.55
